The target in experiment [1] is T1, 5-HT2A receptor (Homo sapiens, UniProt P28223).
T1 construct: expressed in transfected cells; host or cells: HEK293T
The experiment in a line: Serotonin receptor 5-HT2 functional assay (Gq dissociation BRET or Gq-dependent calcium flux), 5-HT2A. Type of experiment: cell-based. The following applies: for 5-HT2A BRET Eff %: efficacy relative to 4-hydroxytryptamine. A general note: BRET reads energy transfer from a luciferase to a nearby fluorophore.

Experiment [2] has as its target T2, 5-HT2C receptor (Homo sapiens, UniProt P28335).
T2 construct: expressed in transfected cells; host or cells: HEK293T
T2 sequence (P28335 33-458): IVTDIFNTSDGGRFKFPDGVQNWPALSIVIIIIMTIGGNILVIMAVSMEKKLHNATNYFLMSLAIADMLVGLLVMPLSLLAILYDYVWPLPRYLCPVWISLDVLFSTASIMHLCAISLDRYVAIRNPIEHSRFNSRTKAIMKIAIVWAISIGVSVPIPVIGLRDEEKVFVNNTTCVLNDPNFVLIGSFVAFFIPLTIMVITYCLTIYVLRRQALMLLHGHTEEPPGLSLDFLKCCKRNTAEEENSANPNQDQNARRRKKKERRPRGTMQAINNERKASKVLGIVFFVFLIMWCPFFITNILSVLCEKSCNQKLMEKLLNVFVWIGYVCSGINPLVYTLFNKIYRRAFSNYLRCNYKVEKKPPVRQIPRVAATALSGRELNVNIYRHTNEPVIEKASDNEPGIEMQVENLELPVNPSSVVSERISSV
The experiment in a line: cell-based. The following applies: for 5-HT2C BRET Eff %: efficacy relative to 4-hydroxytryptamine.

Experiment [3] deals with T3, 5-HT2B receptor (Homo sapiens, UniProt P41595).
T3 construct: expressed in transfected cells; host or cells: HEK293T
T3 sequence (P41595 whole entry): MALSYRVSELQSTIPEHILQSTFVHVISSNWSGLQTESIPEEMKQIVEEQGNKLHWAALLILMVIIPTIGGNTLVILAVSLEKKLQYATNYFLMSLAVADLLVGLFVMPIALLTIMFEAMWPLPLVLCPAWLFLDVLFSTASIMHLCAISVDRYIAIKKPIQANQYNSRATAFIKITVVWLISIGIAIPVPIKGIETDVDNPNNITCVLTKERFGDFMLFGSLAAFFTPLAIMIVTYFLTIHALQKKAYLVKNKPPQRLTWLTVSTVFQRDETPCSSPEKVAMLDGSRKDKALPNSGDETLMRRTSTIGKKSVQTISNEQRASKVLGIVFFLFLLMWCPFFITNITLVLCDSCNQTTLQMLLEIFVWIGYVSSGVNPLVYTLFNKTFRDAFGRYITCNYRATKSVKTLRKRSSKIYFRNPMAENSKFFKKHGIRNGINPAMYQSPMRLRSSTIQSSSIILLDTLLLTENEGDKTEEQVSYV
The experiment is described as follows: Serotonin receptor 5-HT2 functional assay (Gq dissociation BRET or Gq-dependent calcium flux), 5-HT2B. The following applies: for 5-HT2B BRET Eff %: efficacy relative to 4-hydroxytryptamine. Type of experiment: cell-based.

In experiment [4] the target is 5-HT6 receptor (Homo sapiens, UniProt P50406). The experiment is described as follows: Functional activity at other receptor sites relative to psilocin (Table 5), 5-HT6. The following applies: for 5-HT6 Eff %: Table 5, 5-HT6 receptor, compared with psilocin.
Sequence of 5-HT6 receptor (P50406 whole entry): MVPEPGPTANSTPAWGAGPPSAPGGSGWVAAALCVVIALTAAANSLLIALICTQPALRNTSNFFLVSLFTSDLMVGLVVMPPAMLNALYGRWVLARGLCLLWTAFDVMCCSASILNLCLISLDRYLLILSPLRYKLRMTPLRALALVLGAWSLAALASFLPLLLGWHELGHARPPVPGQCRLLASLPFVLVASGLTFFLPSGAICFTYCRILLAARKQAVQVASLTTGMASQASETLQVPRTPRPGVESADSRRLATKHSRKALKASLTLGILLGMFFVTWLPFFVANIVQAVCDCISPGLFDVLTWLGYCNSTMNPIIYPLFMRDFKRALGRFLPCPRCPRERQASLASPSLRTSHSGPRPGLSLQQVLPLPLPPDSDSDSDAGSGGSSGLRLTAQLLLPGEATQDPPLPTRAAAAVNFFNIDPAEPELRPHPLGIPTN
Experiment [5] concerns the target other receptor sites (Homo sapiens, UniProt P28566). The experiment in a line: Functional activity at other receptor sites relative to psilocin (Table 5), further receptors. The following applies: read-out: 5-HT1E EC50, 5-HT1E receptor, compared with psilocin.
Experiment [6] has as its target other receptor sites (Homo sapiens, UniProt Q13639). The experiment is described as above. The following applies: read-out: 5-HT4 EC50, 5-HT4 receptor, compared with psilocin.
Experiment [7] has as its target other receptor sites (Homo sapiens, UniProt P28222). The experiment is described as above. The following applies: read-out: 5-HT1B EC50, 5-HT1B receptor, compared with psilocin.
The target of experiment [8] is other receptor sites (Homo sapiens, UniProt P34969). Described as above. The following applies: read-out: 5-HT7 EC50, 5-HT7 receptor, compared with psilocin.
Sequence of other receptor sites (Homo sapiens, UniProt P34969) (P34969 whole entry): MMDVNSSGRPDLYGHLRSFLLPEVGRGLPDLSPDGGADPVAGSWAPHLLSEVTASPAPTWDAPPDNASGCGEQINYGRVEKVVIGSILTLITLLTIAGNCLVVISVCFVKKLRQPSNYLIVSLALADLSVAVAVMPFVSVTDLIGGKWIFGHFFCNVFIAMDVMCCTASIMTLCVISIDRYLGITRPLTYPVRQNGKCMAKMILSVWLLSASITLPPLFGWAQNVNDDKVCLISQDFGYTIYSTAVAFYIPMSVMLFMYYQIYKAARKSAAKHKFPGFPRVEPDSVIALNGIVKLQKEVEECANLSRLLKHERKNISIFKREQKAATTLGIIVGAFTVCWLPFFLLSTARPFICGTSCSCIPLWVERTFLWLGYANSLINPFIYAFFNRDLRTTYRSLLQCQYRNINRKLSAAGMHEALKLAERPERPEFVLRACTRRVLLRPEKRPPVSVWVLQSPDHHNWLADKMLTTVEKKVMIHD
Experiment [9] deals with other receptor sites (Homo sapiens, UniProt P47898). Described as above. The following applies: read-out: 5-HT5A EC50, 5-HT5A receptor, compared with psilocin.
Sequence of other receptor sites (Homo sapiens, UniProt P47898) (P47898 whole entry): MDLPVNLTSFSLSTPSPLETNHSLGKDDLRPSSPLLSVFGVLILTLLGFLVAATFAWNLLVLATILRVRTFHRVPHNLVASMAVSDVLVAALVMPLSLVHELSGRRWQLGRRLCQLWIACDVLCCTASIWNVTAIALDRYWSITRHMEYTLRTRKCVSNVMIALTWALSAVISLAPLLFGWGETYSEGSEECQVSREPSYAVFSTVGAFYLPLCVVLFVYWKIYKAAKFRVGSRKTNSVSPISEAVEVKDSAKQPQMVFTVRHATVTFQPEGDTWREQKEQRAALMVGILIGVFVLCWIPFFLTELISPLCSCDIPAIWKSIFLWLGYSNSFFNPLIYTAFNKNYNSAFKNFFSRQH
The subject of experiment [10] is other receptor sites. Described as above. The following applies: compared with psilocin; for 5-HT1A Eff %: 5-HT1A receptor; for 5-HT1B Eff %: 5-HT1B receptor; for 5-HT1D Eff %: 5-HT1D receptor; for 5-HT1E Eff %: 5-HT1E receptor; for 5-HT4 Eff %: 5-HT4 receptor; for 5-HT5A Eff %: 5-HT5A receptor; for 5-HT7 Eff %: 5-HT7 receptor.
The target in experiment [11] is T4, other receptor sites (Homo sapiens, UniProt P08908).
T4 sequence (P08908 1-422): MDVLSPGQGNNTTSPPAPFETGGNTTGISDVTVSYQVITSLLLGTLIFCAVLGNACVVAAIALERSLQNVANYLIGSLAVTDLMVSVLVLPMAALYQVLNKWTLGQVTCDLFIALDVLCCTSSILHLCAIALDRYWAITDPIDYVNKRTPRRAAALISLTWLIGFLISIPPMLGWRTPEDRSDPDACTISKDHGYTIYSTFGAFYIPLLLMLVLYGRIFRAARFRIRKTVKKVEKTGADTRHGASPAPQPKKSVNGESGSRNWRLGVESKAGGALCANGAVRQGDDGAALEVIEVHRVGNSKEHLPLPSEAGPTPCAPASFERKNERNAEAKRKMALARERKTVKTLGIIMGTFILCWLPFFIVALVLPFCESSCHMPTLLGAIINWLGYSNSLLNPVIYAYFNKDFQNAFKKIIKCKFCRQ
The description is as above. The following applies: read-out: 5-HT1A EC50, 5-HT1A receptor, compared with psilocin.

Experiment [12] addresses other receptor sites (Homo sapiens, UniProt P28221). Described as above. The following applies: read-out: 5-HT1D EC50, 5-HT1D receptor, compared with psilocin.
Experiment [13] has as its target T5, 5-HT1F receptor (Homo sapiens, UniProt P30939).
T5 sequence (P30939 1-366): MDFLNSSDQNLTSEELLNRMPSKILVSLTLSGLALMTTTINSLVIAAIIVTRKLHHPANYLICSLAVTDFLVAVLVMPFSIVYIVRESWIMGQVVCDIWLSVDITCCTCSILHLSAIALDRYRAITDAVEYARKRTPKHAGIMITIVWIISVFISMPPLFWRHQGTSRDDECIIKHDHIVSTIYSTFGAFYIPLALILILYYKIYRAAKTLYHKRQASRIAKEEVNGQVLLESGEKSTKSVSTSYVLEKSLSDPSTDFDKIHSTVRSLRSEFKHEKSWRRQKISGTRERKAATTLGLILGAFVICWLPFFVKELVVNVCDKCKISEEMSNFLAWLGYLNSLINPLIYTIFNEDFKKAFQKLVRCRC
The experiment in a line: Functional activity at other receptor sites relative to psilocin (Table 5), 5-HT1F. The following applies: for 5-HT1F Eff %: Table 5, 5-HT1F receptor, compared with psilocin.

Where [14] appears, read: Table 4, at least three replicate trials.
The mark [15] stands for this setting: Table 4, relative to 4-hydroxytryptamine, at least three replicate trials, read-out: 5-HT2A BRET EC50.
Setting [16] is: Table 4, relative to 4-hydroxytryptamine, at least three replicate trials, read-out: 5-HT2C BRET EC50.
Setting [17] is: Table 4, relative to 4-hydroxytryptamine, at least three replicate trials, read-out: 5-HT2B BRET EC50.
The mark [18] stands for this setting: Table 5, 5-HT2A receptor, compared with psilocin.
Where [19] appears, read: Table 5, 5-HT2B receptor, compared with psilocin.

Counter-ions that a name gives are not always drawn. Like-named read-outs stand apart in the source and are kept apart here.

T1 sequence (P28223 whole entry): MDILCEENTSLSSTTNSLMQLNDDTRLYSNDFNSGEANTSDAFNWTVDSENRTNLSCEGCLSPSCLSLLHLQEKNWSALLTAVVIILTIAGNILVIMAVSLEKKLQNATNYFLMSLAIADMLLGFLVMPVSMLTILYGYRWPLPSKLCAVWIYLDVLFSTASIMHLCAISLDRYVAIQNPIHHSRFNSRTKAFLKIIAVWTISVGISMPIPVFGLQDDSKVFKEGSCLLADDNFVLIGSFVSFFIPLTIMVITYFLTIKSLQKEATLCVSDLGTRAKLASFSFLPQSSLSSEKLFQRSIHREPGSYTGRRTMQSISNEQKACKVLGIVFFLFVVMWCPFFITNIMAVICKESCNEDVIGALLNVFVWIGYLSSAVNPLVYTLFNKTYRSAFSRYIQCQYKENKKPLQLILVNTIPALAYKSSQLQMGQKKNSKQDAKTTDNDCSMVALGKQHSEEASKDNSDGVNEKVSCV
Sequence of other receptor sites (Homo sapiens, UniProt Q13639) (Q13639 whole entry): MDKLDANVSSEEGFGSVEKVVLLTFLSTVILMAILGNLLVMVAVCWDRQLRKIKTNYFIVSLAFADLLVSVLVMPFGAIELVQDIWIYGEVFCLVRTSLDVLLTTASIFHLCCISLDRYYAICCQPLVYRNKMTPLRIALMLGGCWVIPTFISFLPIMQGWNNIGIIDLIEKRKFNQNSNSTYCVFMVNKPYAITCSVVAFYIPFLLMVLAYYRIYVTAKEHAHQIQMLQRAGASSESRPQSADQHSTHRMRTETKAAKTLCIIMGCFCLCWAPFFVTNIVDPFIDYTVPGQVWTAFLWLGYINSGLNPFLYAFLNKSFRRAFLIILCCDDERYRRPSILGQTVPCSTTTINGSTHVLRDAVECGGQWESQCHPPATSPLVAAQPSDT
Sequence of other receptor sites (Homo sapiens, UniProt P28222) (P28222 whole entry): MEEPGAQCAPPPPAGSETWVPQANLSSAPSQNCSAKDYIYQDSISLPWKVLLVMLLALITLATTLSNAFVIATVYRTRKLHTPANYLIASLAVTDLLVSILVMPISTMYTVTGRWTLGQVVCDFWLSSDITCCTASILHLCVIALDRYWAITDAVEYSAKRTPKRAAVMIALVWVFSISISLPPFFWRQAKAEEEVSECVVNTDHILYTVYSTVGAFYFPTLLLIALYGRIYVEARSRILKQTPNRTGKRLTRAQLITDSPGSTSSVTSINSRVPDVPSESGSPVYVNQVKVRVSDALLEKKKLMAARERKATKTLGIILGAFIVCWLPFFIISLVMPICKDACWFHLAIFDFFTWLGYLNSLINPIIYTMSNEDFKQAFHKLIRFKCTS
Sequence of other receptor sites (Homo sapiens, UniProt P28566) (P28566 whole entry): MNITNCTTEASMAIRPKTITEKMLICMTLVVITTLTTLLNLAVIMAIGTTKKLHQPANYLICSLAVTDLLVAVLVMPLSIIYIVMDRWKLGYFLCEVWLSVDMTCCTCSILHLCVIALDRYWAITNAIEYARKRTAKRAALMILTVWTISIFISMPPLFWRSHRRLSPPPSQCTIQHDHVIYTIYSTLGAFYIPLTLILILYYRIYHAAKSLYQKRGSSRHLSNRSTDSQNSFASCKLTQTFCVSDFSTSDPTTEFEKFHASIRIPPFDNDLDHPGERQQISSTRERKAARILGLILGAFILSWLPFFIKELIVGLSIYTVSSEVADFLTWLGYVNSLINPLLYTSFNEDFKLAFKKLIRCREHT
Sequence of other receptor sites (Homo sapiens, UniProt P28221) (P28221 whole entry): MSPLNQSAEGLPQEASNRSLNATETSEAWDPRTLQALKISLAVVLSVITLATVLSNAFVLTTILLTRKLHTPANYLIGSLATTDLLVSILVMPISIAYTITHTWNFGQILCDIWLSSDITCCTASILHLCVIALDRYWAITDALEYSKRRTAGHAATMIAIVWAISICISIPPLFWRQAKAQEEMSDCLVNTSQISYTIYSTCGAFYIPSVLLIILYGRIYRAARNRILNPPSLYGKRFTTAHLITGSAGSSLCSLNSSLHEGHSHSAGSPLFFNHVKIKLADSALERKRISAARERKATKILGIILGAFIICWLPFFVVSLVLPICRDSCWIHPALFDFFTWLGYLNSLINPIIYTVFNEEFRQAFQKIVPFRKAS

In the case of `Cc1cc2c(c3c(CCN)c[nH]c13)CCCO2` [Compound 110], in experiment [1] (setting [14]), the “5-HT2A BRET Eff %” value amounted to 91%. Also, the EC50 – broadly, the concentration at which the effect is half-maximal – was 277 nM in experiment [1] (setting [15]), 69 nM in experiment [2] (setting [16]) and 139 nM in experiment [3] (setting [17]). In experiment [2] (setting [14]), the “5-HT2C BRET Eff %” value amounted to 96%. Besides, the “5-HT2B BRET Eff %” value in experiment [3] (setting [14]) came out at 63%.
On to `CN(C)CCc1cn2c3c(cccc13)OCC2` [Compound 135, [2-(2,3-Dihydro-[1,4]oxazino[2,3,4-hi]indol-6-yl)ethyl]dimethylamine Hydrochloride], for which the “5-HT2A BRET Eff %” value in [1] (setting [14]) is 76%. Further, the EC50 in [1] (setting [15]) came to 767 nM; in experiment [2] (setting [16]), 9 nM; in [3] (setting [17]), 10.7 nM. Further, the “5-HT2C BRET Eff %” value in experiment [2] (setting [14]) amounted to 96%. Besides, in experiment [3] (setting [14]), the “5-HT2B BRET Eff %” value is 42%.
For `Cc1ccc(O)c2c(CCN(C)C)c[nH]c12` [drawing 38], the EC50 in experiment [4] amounted to 9 nM; in experiment [1] (read-out: 5-HT2A EC50, Table 5, 5-HT2A receptor, compared with psilocin), 66 nM; in [2] (Table 5, 5-HT2C receptor, compared with psilocin, read-out: 5-HT2C EC50), 6.9 nM; in [5], 167 nM; in experiment [6], 257 nM; in [7], 309 nM. Further, the EC50 in [8] was found to be 5.2 nM; in experiment [9], 23000 nM; in [11] it was 12600 nM; in experiment [12] it was 749 nM; in experiment [13], 23 nM; in [3] (5-HT2B EC50 (nM), Table 5, 5-HT2B receptor, compared with psilocin), 3.6 nM. In addition, the “5-HT6 Eff %” value in experiment [4] was 48%. For the same compound, the “5-HT2A Eff %” value in experiment [1] (setting [18]) was 73%. Moreover, the “5-HT2C Eff %” value in [2] (Table 5, 5-HT2C receptor, compared with psilocin) worked out at 79%. Besides, in experiment [10], the “5-HT1A Eff %” value amounted to 76%. In experiment [10], the “5-HT1B Eff %” value is 105%. In addition, the “5-HT1D Eff %” value in [10] is recorded as 112%. For the same compound, the “5-HT1E Eff %” value in [10] worked out at 102%. In addition, in experiment [10], the “5-HT4 Eff %” value came to 13%. In [10], the “5-HT5A Eff %” value turned out to be 20%. The “5-HT7 Eff %” value in experiment [10] is 3.4%. For the same compound, the “5-HT1F Eff %” value in experiment [13] turned out to be 92%. Also, the “5-HT2B Eff %” value in [3] (setting [19]) stood at 16%.
With `CN(C)CCc1c[nH]c2cccc(O)c12` [drawing 39], in experiment [4], the midpoint of the response, the EC50, lay at 183 nM and the “5-HT6 Eff %” value amounted to 74%. In addition, in [1] (setting [18]), the “5-HT2A Eff %” value stood at 82%. Further, the 50% effective concentration (EC50) in experiment [6] worked out at 563 nM. For the same compound, the EC50 in experiment [8] worked out at 525 nM. Further, in experiment [10], the “5-HT1A Eff %” value was found to be 93%, the “5-HT1B Eff %” value is 94%, the “5-HT1D Eff %” value amounted to 102% and the “5-HT1E Eff %” value came out at 90%. For the same compound, in [10], the “5-HT4 Eff %” value was determined as 81%, the “5-HT5A Eff %” value is on record as 48% and the “5-HT7 Eff %” value is given as 86%. In experiment [13], the EC50 was found to be 9.3 nM and the “5-HT1F Eff %” value was 93%. Further, the “5-HT2B Eff %” value in experiment [3] (setting [19]) is listed as 63%.

The values are drawn from patent publication US20250059217A1, “HETEROCYCLIC COMPOUNDS AND METHODS OF PREPARATION THEREOF” (priority 2021, published 2025).
